Measurements published in paper PMC10411625, “Rationally designed stapled peptides allosterically inhibit PTBP1–RNA-binding” (Chemical Science, 2023).

Test system: HEK293T cells
Test: Cell viability assay (CellTiterGlo 2.0)
Type: cell-based
Settings: CellTiterGlo 2.0, concentrations of up to 300 μM
Procedure: protein was buffer exchanged into CD-Buffer using spin columns and measurements were performed in this buffer under similar conditions with protein concentrations of 0.2 mg/ml.
Co-Crystallisation of RRM1Δα3 with P-6
Protein construct RRM1Δα3 was purified using the protocol discussed above and concentrated to 14 mg/ml. P-6 was dissolved in SEC buffer and added in a 1.5 molar excess to the protein solution. After removal of particles by centrifugation (20000 x g, 4 °C, 10 min) sitting-drop experiments were set up by adding 200 nl of protein/ligand to 100 nl reservoir solution (1.89 M (NH4)2SO4, 0.1 M HEPES pH 6.86, 2% v/v PEG400) in MRC 3-drop plates. Sealed plates were incubated at 20 °C using a Formulatrix RockImager and crystals were obtained after several days. Prior to flash-freezing the crystals were cryo conserved by adding 0.5 µl reservoir solution containing 20% v/v glycerol to the drop.
X-ray data collection and processing
X-ray diffraction data was collected at X10SA (PXII) at Swiss Light Source. […]
HEK293T cells were seeded at 30000 cells/well in 75 µl DMEM supplemented with 10% FBS with 1x Pen-Strep (Gibco) in 96-well plates on the day prior the experiment. […] Cell viability was read out using CellTiterGlo 2.0 (Promega) according to the manufacturers protocol. Viability was calculated in % of signal normalized to the DMSO controls.

CC(=O)N[C@@H](CC(N)=O)C(=O)N[C@@H](CCC(N)=O)C(=O)N[C@@]1(C)CCCC=CCCCC2(CCCC=CCCC[C@](C)(C(=O)N[C@H](C(=O)N[C@@H](CC(N)=O)C(N)=O)C(C)C)NC(=O)[C@H](CCC(N)=O)NC(=O)[C@H](CC(C)C)NC(=O)[C@H](C)NC2=O)NC(=O)[C@H](CCC(N)=O)NC(=O)[C@H](C)NC(=O)[C@H](CCCNC(=N)N)NC1=O (stereo partly shown) [Peptide P-6]
cell viability (in words): not affected
